From patent EP4737445A1, “NOVEL SATURATED HETEROCYCLE-SUBSTITUTED HETEROARYL-CARBONOHYDRAZONOYL DICYANIDE COMPOUND AND USE THEREOF” (Korea Institute of Science and Technology, priority 2023, dated 2025)

What was measured:
Tau-BiFC cells = experiment: Cell viability (stained nuclei count) in Tau-BiFC cells; format: cell-based; conditions: @10 µM; Tau-BiFC cell line; Forskolin-only group = 100%
Protocol: To screen for new tau aggregation inhibitors, a Tau-BiFC cell model that facilitates observation of tau oligomer formation in living cells was used. Tau-BiFC cells were dispensed into a 384-well plate, and the next day, the compounds prepared according to Examples 1 to 46 were treated at concentrations of 1, 3, and 10 µM, respectively, together with Forskolin (treatment concentration 30 µM), which is a compound that induces tau aggregation by activating the tau phosphorylation enzyme PKA. After 48 hours, nuclei within cells were stained using Hoechst (treatment concentration 2 µg/mL), and BiFC fluorescence intensity was automatically quantified using Operetta (Perkin Elmer) to count the stained nuclei in each well from the entire plate. The group treated only with Forskolin, which induces tau aggregation, was set as the reference point with 100% tau aggregation state, and the effect was confirmed by the formula "BiFC fluorescence intensity by the compounds synthesized according to the Examples of the disclosure/(fluorescence intensity of the control group treated only with Forskolin that induces tau aggregation - fluorescence intensity of the untreated control group) × 100". In addition, the degree of cytotoxicity induced by the newly synthesized compounds was also calculated using the formula "(number of stained nuclei in the compound-treated group/number of stained nuclei in the Forskolin-treated group) × 100", with the group treated only with Forskolin as the reference point at 100% viability. From the treatment results, substances that inhibit intracellular tau aggregation were identified through screening from a series of candidates based on the criteria of 70% or more tau aggregation inhibition and 100% cell viability at a compound treatment concentration of 10 µM.
To confirm the tau aggregation inhibitory effect according to the concentration of the compounds screened in Experimental Example 1, the screened compounds were treated to Tau-BiFC cells at concentrations of 0.03, 0.1, 0.3, 1, 3, 10, and 30 µM, respectively, together with Forskolin (treatment concentration 30 µM), which is a tau aggregation-inducing substance. After 48 hours, cell images were examined to analyze the tau aggregation reaction and degree of cytotoxicity. The IC50 and toxicity of the compounds were analyzed by nonlinear regression analysis using Prism software (GraphPad). The calculated results for representative compounds are shown in Table 3 below: Tau aggregation inhibitory effect and cell viability of novel compounds.

CYP2D6 = molecular target: T1, CYP2D6 (Homo sapiens, UniProt P10635); experiment: CYP isoenzyme activity inhibition in human liver microsomes, CYP2D6; format: in vitro ADME; conditions: 10 µM compound; human liver microsomes 0.25 mg/mL; relative to control without compound
T1 construct: human liver microsomes (0.25 mg/mL); from tissue; host or cells: human liver microsomes
T1 sequence (P10635 whole entry): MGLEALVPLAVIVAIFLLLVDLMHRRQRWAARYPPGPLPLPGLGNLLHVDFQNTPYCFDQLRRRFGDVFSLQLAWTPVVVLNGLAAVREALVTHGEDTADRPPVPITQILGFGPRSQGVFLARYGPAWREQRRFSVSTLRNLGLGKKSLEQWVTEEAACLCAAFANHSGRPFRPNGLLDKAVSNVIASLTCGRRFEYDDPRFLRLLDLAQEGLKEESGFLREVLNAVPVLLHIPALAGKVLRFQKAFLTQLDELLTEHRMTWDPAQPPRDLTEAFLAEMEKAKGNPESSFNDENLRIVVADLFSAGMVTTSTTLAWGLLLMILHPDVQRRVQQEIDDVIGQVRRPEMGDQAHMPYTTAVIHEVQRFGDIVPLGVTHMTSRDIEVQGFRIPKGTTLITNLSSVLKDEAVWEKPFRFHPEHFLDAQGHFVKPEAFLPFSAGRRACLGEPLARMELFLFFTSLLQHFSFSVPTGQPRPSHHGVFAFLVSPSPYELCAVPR
Protocol: (§1) The CYP isoenzyme activity inhibitory effect by the compounds prepared according to Examples 1 to 46 was confirmed. Specifically, human liver microsomes (0.25 mg/mL), 0.1 M phosphate buffer solution (pH 7.4), a substrate drug cocktail of five drug metabolizing enzymes (Phenacetin 50 µM, Diclofenac 10 µM, S-mephenytoin 100 µM, Dextromethorphan 5 µM, and Midazolam 2.5 µM), and the compounds were added at concentrations of 0 or 10 µM, respectively, and pre-incubated at 37°C for 5 minutes, and then NADPH generation system solution was added and incubated at 37°C for an additional 15 minutes. Thereafter, an acetonitrile solution containing an internal standard (Terfenadine) was added to terminate the reaction, and after centrifugation for 5 minutes (14,000 rpm, 4°C), the supernatant was injected into an LC-MS/MS system to simultaneously analyze the metabolites of the substrate drugs, thereby evaluating the drug metabolizing enzyme inhibitory activity.
(§2) The metabolites of each CYP isoenzyme marker drug generated through the reaction were analyzed using a Shimadzu Nexera XR system and TSQ vantage (Thermo). A Kinetex C18 (2.1 × 100 mm, 2.6 µm, particle size; Phenomenex, USA) was used as the HPLC column, and (A) distilled water containing 0.1% formic acid and (B) acetonitrile containing 0.1% formic acid were used as mobile phases, and a gradient program as shown in Table 6 below was applied.
(§3) The generated metabolites were quantified using MRM (Multiple Reaction Monitoring) quantitative mode, and Xcalibur (version 1.6.1) was used for data analysis. To show the CYP isoenzyme activity inhibitory effect of the novel compounds prepared according to the Examples of the disclosure, the % activity of CYP isoenzymes relative to the control group without compound addition is shown in Table 6 below. Additionally, to confirm the difference in effect according to substituents, Comparative Compounds 1 and 5, which are two compounds that share a similar parent nucleus structure with Compounds 1 to 46 of the disclosure while Cy is substituted with aromatic heteroaryl instead of saturated heterocyclyl, were selected as comparative compounds and their activities are shown together.

CYP2C9 = molecular target: T2, CYP2C9 (Homo sapiens, UniProt P11712); experiment: CYP isoenzyme activity inhibition in human liver microsomes, CYP2C9; format: in vitro ADME; conditions: 10 µM compound; human liver microsomes 0.25 mg/mL; relative to control without compound
T2 construct: human liver microsomes (0.25 mg/mL); from tissue; host or cells: human liver microsomes
T2 sequence (P11712 whole entry): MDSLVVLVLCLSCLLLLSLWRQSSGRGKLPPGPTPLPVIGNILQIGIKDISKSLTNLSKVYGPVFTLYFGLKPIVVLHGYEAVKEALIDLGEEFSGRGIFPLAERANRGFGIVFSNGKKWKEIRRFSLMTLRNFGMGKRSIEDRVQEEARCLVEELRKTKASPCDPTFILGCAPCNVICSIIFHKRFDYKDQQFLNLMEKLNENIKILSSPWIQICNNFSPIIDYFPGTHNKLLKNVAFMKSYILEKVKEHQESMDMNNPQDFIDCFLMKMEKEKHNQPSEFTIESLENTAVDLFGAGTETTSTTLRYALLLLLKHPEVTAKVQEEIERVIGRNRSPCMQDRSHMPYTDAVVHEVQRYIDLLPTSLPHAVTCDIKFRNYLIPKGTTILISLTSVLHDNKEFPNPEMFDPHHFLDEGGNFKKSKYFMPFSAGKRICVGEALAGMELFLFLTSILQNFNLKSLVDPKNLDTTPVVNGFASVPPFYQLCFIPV
Protocol: as §1, §2, §3

[1] = Liver microsomal stability, mouse; format: in vitro ADME; conditions: 1 µM compound; 0.5 mg/mL microsomes; NADPH; 30 minutes at 37°C
Protocol: Liver microsomal stability by the compounds prepared according to Examples 1 to 46 was confirmed. Specifically, four types of liver microsomes (human, dog, rat, and mouse each at 0.5 mg/mL), 0.1 M phosphate buffer solution (pH 7.4), and the compounds at 1 µM concentration were added and pre-incubated at 37°C for 5 minutes, and then NADPH generation system solution was added and incubated at 37°C for an additional 30 minutes. Thereafter, an acetonitrile solution containing an internal standard (chloropropamide) was added to terminate the reaction, and after centrifugation for 5 minutes (14,000 rpm, 4°C), the supernatant was injected into an LC-MS/MS system to analyze the substrate drug, thereby evaluating the metabolic stability of 8 compounds.
The amount of remaining substrate through the reaction was analyzed using a Shimadzu Nexera XR system and TSQ vantage (Thermo). A Kinetex XB-C18 (2.1 × 100 mm, 2.6 µm, particle size; Phenomenex, USA) was used as the HPLC column, and (A) distilled water containing 0.1% formic acid and (B) acetonitrile containing 0.1% formic acid were used as mobile phases. Analyst software (version 1.6.3) and Xcalibur (version 1.6.1) were used for data analysis. The calculated results are shown in Table 5 below: Liver microsomal stability data of novel compounds from […] (human, rat, and mouse).

Row | Structure (SMILES) | Cell viability (% @10µM) (Tau-BiFC cells) [%] | CYP2D6 (% activity) (CYP2D6) | CYP2C9 (% activity) (CYP2C9) | Mouse microsomes (% remaining) [1] [% remaining]
1 | N#CC(C#N)=NNc1ccc2nc(N3CCOCC3)sc2c1 [Compound 2, (2-morpholinobenzo[d]thiazol-6-yl)carbonohydrazonoyl dicyanide] | 100 | > 100 | 95.1 | 94.10
2 | N#CC(C#N)=NNc1ccc2nc(N3C4CCC3COC4)sc2c1 [Compound 11, (2-(3-oxa-8-azabicyclo[3.2.1]octan-8-yl)benzo[d]thiazol-6-yl)carbonohydrazonoyl dicyanide] | 100 | 98.6 | 70.2 | 87.8
3 | CC(C)N1CCN(c2nc3ccc(NN=C(C#N)C#N)cc3o2)CC1 [Compound 28, (2-(4-isopropylpiperazin-1-yl)benzo[d]oxazol-6-yl)carbonohydrazonoyl dicyanide] | 99 | 78 | 48.5 | 81.8
4 | Cn1c(N2C3CCC2COC3)nc2ccc(NN=C(C#N)C#N)cc21 [Compound 34, (2-(3-oxa-8-azabicyclo[3.2.1]octan-8-yl)-1-methyl-1H-benzo[d]imidazol-6-yl)carbonohydrazonoyl dicyanide] | 100 | 92.4 | 80.8 | 78.2
5 | N#CC(C#N)=NNc1ccc2nc(N3CCOCC3)oc2c1 [Compound 4, (2-morpholinobenzo[d]oxazol-6-yl)carbonohydrazonoyl dicyanide] | 100 | > 100 | 93.2 | 98.5
6 | CC(=O)N1CCN(c2nc3ccc(NN=C(C#N)C#N)cc3o2)CC1 [Compound 31, (2-(4-acetylpiperazin-1-yl)benzo[d]oxazol-6-yl)carbonohydrazonoyl dicyanide] | 100 | 93.3 | 88.8 | > 100
7 | CCn1c(N2CCOCC2)nc2cc(NN=C(C#N)C#N)ccc21 [Compound 33, (1-ethyl-2-morpholino-1H-benzo[d]imidazol-5-yl)carbonohydrazonoyl dicyanide] | 97 | 97.9 | 28.8 | 89
8 | CC1COCCN1c1nc2ccc(NN=C(C#N)C#N)cc2s1 (stereo not shown) [Compound 13, (2-(3-methylmorpholino)benzo[d]thiazol-6-yl)carbonohydrazonoyl dicyanide] | 99 | > 100 | 75 | 84.8
9 | N#CC(C#N)=NNc1ccc2nc(N3CCNCC3)oc2c1 [Compound 25, (2-(piperazin-1-yl)benzo[d]oxazol-6-yl)carbonohydrazonoyl dicyanide] | 94 | 93.5 | 93.5 | 
10 | N#CC(C#N)=NNc1ccc2nc(N3CC4CCC(C3)O4)sc2c1 [Compound 23, (2-(8-oxa-3-azabicyclo[3.2.1]octan-3-yl)benzo[d]thiazol-6-yl)carbonohydrazonoyl dicyanide] | 92 | 71.5 | 68.5 | 86.6
11 | CC1CN(c2nc3ccc(NN=C(C#N)C#N)cc3o2)CCO1 (stereo not shown) [Compound 15, (2-(2-methylmorpholino)benzo[d]oxazol-6-yl)carbonohydrazonoyl dicyanide] | 100 | > 100 | 88.6 | > 100
12 | CC1COCCN1c1nc2ccc(NN=C(C#N)C#N)cc2o1 (stereo not shown) [Compound 16, (2-(3-methylmorpholino)benzo[d]oxazol-6-yl)carbonohydrazonoyl dicyanide] | 100 | 92.1 | 87 | 89.5
13 | CN1CCN(c2nc3ccc(NN=C(C#N)C#N)cc3o2)CC1 [Compound 14, (2-(4-methylpiperazin-1-yl)benzo[d]oxazol-6-yl)carbonohydrazonoyl dicyanide] | 100 | > 100 | 88 | 
14 | N#CC(C#N)=NNc1ccc2nc(NC(=O)N3CCOCC3)sc2c1 [Compound 38, (2-(morpholine-4-carboxamido)benzo[d]thiazol-6-yl)carbonohydrazonoyl dicyanide] | 97 | 95.7 | 73.6 | 86.1
15 | CCn1c(N2CCOCC2)nc2ccc(NN=C(C#N)C#N)cc21 [Compound 32, (1-ethyl-2-morpholino-1H-benzo[d]imidazol-6-yl)carbonohydrazonoyl dicyanide] | 98 | 92.1 | 65.1 | 92.3
16 | N#CC(C#N)=NNc1ccc2nc(N3CCNCC3)sc2c1 [Compound 24, (2-(piperazin-1-yl)benzo[d]thiazol-6-yl)carbonohydrazonoyl dicyanide] | 95 | 74.2 | 72.0 | 
17 | CC(C)N1CCN(c2nc3ccc(NN=C(C#N)C#N)cc3s2)CC1 [Compound 27, (2-(4-isopropylpiperazin-1-yl)benzo[d]thiazol-6-yl)carbonohydrazonoyl dicyanide] | 99 | 92.3 | 58.5 | 
